Our source for the IC50 values is PubChem BioAssay AID743428 (The Scripps Research Institute Molecular Screening Center, 2014).

The structures appear in SMILES notation. Activity calls are given as the source filed them. No rule for the calls is given here.

For this experiment, the target named is Sphingosine 1-phosphate receptor 2 (Homo sapiens) (UniProt O95136). Description: antagonism at human S1PR2 – cell-based, FRET, dose response, counter-screen for S1PR3 antagonist project, late-stage follow-up (AID 743428). The note with it: S1P2-expressing cells, FRET reporter, antagonist counterscreen. On the technique in general: A counterscreen serves to expose hits that act by an unwanted route or on another target.
Chain of Sphingosine 1-phosphate receptor 2 (Homo sapiens) (O95136 whole entry, looked up): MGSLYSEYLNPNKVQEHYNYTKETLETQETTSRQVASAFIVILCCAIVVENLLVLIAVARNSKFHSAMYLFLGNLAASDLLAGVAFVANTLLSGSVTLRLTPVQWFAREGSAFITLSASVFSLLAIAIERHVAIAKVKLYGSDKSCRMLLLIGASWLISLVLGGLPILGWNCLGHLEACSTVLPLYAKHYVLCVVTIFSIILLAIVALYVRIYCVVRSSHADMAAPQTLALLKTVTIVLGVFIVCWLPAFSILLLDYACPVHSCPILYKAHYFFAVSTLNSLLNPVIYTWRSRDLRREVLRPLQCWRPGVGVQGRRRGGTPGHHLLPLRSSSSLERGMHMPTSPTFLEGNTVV
Take `O=C(NC(Cc1ccccc1)c1nc(-c2ccccc2)no1)c1cccc(Cl)c1` (configuration not stated): the IC50 result is “inactive”.

As for `O=C(NC(c1ccc(Cl)cc1)c1nc(-c2cccc(Cl)c2)no1)c1cccc(Cl)c1` (configuration not stated), the IC50 is > 50 µM (inactive).

Take `O=C(NC(c1cccc(Cl)c1)c1nc(-c2ccccc2)no1)c1ccc(Cl)c(Cl)c1` (configuration not stated): the IC50 was > 50 µM (inactive).

Take `CCc1ccc(C(NC(=O)c2cccc(Cl)c2)c2nc(-c3ccccc3)no2)cc1` (configuration not stated): the IC50 was > 50 µM (inactive).

Take `O=C(NC(c1ccc(Cl)c(Cl)c1)c1nc(-c2ccccc2)no1)c1ccccc1` (configuration not stated): the IC50 was > 50 µM (inactive).

With `N#Cc1ccc(C(=O)NC(c2ccc(Cl)c(Cl)c2)c2nc(-c3ccccc3)no2)cc1` (configuration not stated), the IC50 was > 50 µM (inactive).

As to `O=C(NC(c1ccc(Cl)cc1)c1nc(-c2ccccc2)no1)c1cccc(Cl)c1` (configuration not stated), the IC50 was > 50 µM (inactive).

As for `O=C(NC(c1ccccc1)c1nc(-c2ccccc2)no1)c1cccc(Br)c1` (configuration not stated), the IC50 was > 50 µM (inactive).

On to `O=C(NC(c1ccc(Cl)cc1)c1nc(-c2ccccn2)no1)c1cccc(Cl)c1` (configuration not stated), for which the IC50 was > 50 µM (inactive).

Turning to `O=C(c1cccc(Cl)c1)N(CCO)C(c1ccc(Cl)c(Cl)c1)c1nc(-c2ccccc2)no1` (configuration not stated), the IC50 entry was “inactive”.

In the case of `O=C(NC(c1ccc(Br)cc1)c1nc(-c2ccccc2)no1)c1ccc(Cl)c(Cl)c1` (configuration not stated), the IC50 was > 50 µM (inactive).

Turning to `COc1ccc(C(=O)NC(c2ccccc2)c2nc(-c3ccccc3)no2)cc1` (configuration not stated), the IC50 is > 50 µM (inactive).

As to `O=C(NC(c1ccc(Cl)cc1)c1nc(-c2ccccc2)no1)c1ccc(Cl)c(Cl)c1` (configuration not stated), the IC50 was > 50 µM (inactive).

As for `O=C(NC(c1ccc(Cl)c(Cl)c1)c1nc(-c2ccccc2)no1)c1cccc(Cl)c1` (configuration not stated), the IC50 is > 50 µM (inactive).

As for `O=C(NC(c1cccc(Cl)c1)c1nc(-c2ccccc2)no1)c1cccc(Cl)c1` (configuration not stated), the IC50 is > 50 µM (inactive).

In the case of `O=C(NC(c1nc(-c2ccccc2)no1)C1CCCCC1)c1ccc(Cl)c(Cl)c1` (configuration not stated), the IC50 was > 50 µM (inactive).

In the case of `O=C(NC(c1ccccc1)c1nc(-c2ccccc2)no1)c1cccc(Cl)n1` (configuration not stated), the IC50 was > 50 µM (inactive).

Take `O=C(NC(c1ccc(Cl)c(Cl)c1)c1nc(-c2ccccc2)no1)c1ccc(Cl)c(Cl)c1` (configuration not stated): the IC50 is > 50 µM (inactive).

`O=C(NC(c1nc(-c2ccccc2)no1)C1CCOCC1)c1ccc(Cl)c(Cl)c1` (configuration not stated): the IC50 is > 50 µM (inactive).

Turning to `O=C(NC(c1cccc(Cl)c1)c1nc(-c2ccccc2)no1)c1cc(Cl)cc(Cl)c1` (configuration not stated), the IC50 is > 50 µM (inactive).

Turning to `O=C(NC(c1ccccc1)c1nc(-c2ccccc2)no1)c1ccc(Cl)cc1` (configuration not stated), the IC50 is > 50 µM (inactive).

Regarding `O=C(NC(c1ccccc1)c1nc(-c2ccccc2)no1)c1cccc(Cl)c1` (configuration not stated), the IC50 was > 50 µM (inactive).

Take `O=C(NC(c1ccc(Cl)cc1)c1nc(-c2ccccc2)no1)c1cccc(Br)c1` (configuration not stated): the IC50 was > 50 µM (inactive).

As to `O=C(NC(c1ccc(Cl)c(Cl)c1)c1nc(-c2ccccc2)no1)c1ccc(Cl)cc1` (configuration not stated), the IC50 is > 50 µM (inactive).

`Cc1ccc(C(=O)NC(c2ccccc2)c2nc(-c3ccccc3)no2)cc1` (configuration not stated): the IC50 is > 50 µM (inactive).

As to `Cc1ccc(C(NC(=O)c2cccc(Cl)c2)c2nc(-c3ccccc3)no2)cc1` (configuration not stated), the IC50 was > 50 µM (inactive).

Consider `O=C(NC(c1ccc(Cl)cc1)c1nc(-c2ccccc2)no1)c1ccc(Cl)c(Br)c1` (configuration not stated), for which the IC50 is > 50 µM (inactive).

For orientation: IC50 means the concentration at which inhibition is half-maximal.
